Source: patent US7462600B2, “Macrolides” (Pfizer Inc, priority 2004, dated 2008)
In brackets after ≈: the same amount, converted by molar mass. Read-outs that look alike come from different tables or passages of the source.

Key:
Assay type in all cases: cell-based
[1] = system: Haemophilus influenzae 1218; test: MIC, microtiter broth dilution (NCCLS M100-S14), H. influenzae 1218 (susceptible)
In short: (§1)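 Antibacterial activity is expressed as the MIC from broth microdilution. Reading follows the NCCLS M100-S14 performance standards, and stocks are made in DMSO at 40 mg/ml.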

[2] = system: Streptococcus pneumoniae 1175; settings: microtiter broth dilution
In short: as §1

[3] = system: Streptococcus pneumoniae 1095; settings: microtiter broth dilution
In short: as §1

[4] = system: Streptococcus pyogenes 1079; test: MIC, microtiter broth dilution (NCCLS M100-S14), S. pyogenes 1079 (ermB)
In short: as §1

[5] = system: Streptococcus pneumoniae 1016; test: MIC, microtiter broth dilution (NCCLS M100-S14), S. pneumoniae 1016 (susceptible)
In short: as §1

[6] = H. influenzae 1218 (susceptible)
[7] = S. pneumoniae 1016 (susceptible)

Compound	MIC H. influenzae 1218 [1, 6]	MIC S. pneumo. 1175 ([2]; S. pneumoniae 1175 (mefA))	MIC S. pneumo. 1095 ([3]; S. pneumoniae 1095 (ermB))	MIC S. pyogenes 1079 ([4]; S. pyogenes 1079 (ermB))	MIC S. pneumo. 1016 [5, 7]	MIC H. influenzae 1218 ([1]; Haemophilus influenzae 1218)	MIC S. pneumo. 1175 ([2]; Streptococcus pneumoniae 1175)	MIC S. pneumo. 1095 ([3]; Streptococcus pneumoniae 1095)	MIC S. pyogenes 1079 ([4]; Streptococcus pyogenes 1079)	MIC S. pneumo. 1016 ([5]; Streptococcus pneumoniae 1016)
CCC1OC(=O)C(C)C(=O)C(C)C(OC2OC(C)CC(N(C)C)C2O)C(C)(OC)CC(C)C(=O)C(C)C2N(CC3(O)CN(C(=O)c4ccc5ncccc5c4)C3)C(=O)OC12C (stereo not drawn) [7.05]	1 µg/mL (≈ 1.17 µM)	1 µg/mL (≈ 1.17 µM)	2 µg/mL (≈ 2.34 µM)	>64.00 µg/mL	<0.06 µg/mL					
CCC1OC(=O)C(C)C(=O)C(C)C(OC2OC(C)CC(N(C)C)C2O)C(C)(OC)CC(C)C(=O)C(C)C2N(CC3CCCN3Cc3ccnc4ccccc34)C(=O)OC12C (stereo not drawn) [10.04]	0.5 µg/mL (≈ 0.597 µM)	<0.06 µg/mL	<0.06 µg/mL	16 µg/mL (≈ 19.1 µM)	<0.06 µg/mL					
CCC1OC(=O)C(C)C(=O)C(C)C(OC2OC(C)CC(N(C)C)C2O)C(C)(OC)CC(C)C(=O)C(C)C2N(CC3CCCN3Cc3c[nH]nn3)C(=O)OC12C (stereo not drawn) [10.02]	1 µg/mL (≈ 1.29 µM)	2 µg/mL (≈ 2.57 µM)	0.25 µg/mL (≈ 0.322 µM)	>64.00 µg/mL	<0.06 µg/mL					
CC[C@H]1OC(=O)[C@H](C)[C@@H](OC(=O)N2CCCC2c2cccc(F)c2)[C@H](C)[C@@H](O[C@@H]2O[C@H](C)C[C@H](N(C)C)[C@H]2O)[C@](C)(OC)C[C@@H](C)C(=O)[C@H](C)[C@H]2N(CC3CN(Cc4c[nH]c5ncccc45)C3)C(=O)O[C@]12C (stereo partly drawn) [Example 5.05, 3-descladinosyl-11,12-dideoxy-6-O-methyl-12,11-(oxycarbonyl-(1-((1H-pyrrolo[2,3-b]pyridin-3-yl)-methyl)-(azetidin-3-yl)-methyl)-imino)-3-((2-(3-fluorophenyl)-pyrrolidine)-1-carbonyl)-erythromycin A]						8 µg/mL (≈ 7.96 µM)	0.5 µg/mL (≈ 0.497 µM)	2 µg/mL (≈ 1.99 µM)	4 µg/mL (≈ 3.98 µM)	<0.06 µg/mL
CCC1OC(=O)C(C)C(=O)C(C)C(OC2OC(C)CC(N(C)C)C2O)C(C)(OC)CC(C)C(=O)C(C)C2N(C3CN(S(=O)(=O)c4cccc5c(C#N)cccc45)C3)C(=O)OC12C (stereo not drawn) [Example 3.49]						0.5 µg/mL (≈ 0.566 µM)	<0.06 µg/mL	<0.06 µg/mL	0.5 µg/mL (≈ 0.566 µM)	<0.06 µg/mL
CCC1OC(=O)C(C)C(=O)C(C)C(OC2OC(C)CC(N(C)C)C2O)C(C)(OC)CC(C)C(=O)C(C)C2N(CC3CCCN3S(=O)(=O)c3cccc4cccnc34)C(=O)OC12C (stereo not drawn) [10.47]	2 µg/mL (≈ 2.25 µM)	<0.06 µg/mL	0.12 µg/mL (≈ 0.135 µM)	64 µg/mL (≈ 72.1 µM)	<0.06 µg/mL					
CCC1OC(=O)C(C)C(=O)C(C)C(OC2OC(C)CC(N(C)C)C2O)C(C)(OC)CC(C)C(=O)C(C)C2N(C3CN(Cc4ccc(=O)n5ccccc45)C3)C(=O)OC12C (stereo not drawn) [Example 1.82, 3-descladinosyl-11,12-dideoxy-6-O-methyl-3-oxo-12,11-(oxycarbonyl-(1-(4H-quinolizin-4-one-1-methyl)-azetidin-3-yl)-imino)-erythromycin A]						0.5 µg/mL (≈ 0.606 µM)	<0.063 µg/mL	<0.063 µg/mL	4 µg/mL (≈ 4.85 µM)	<0.063 µg/mL
CCC1OC(=O)C(C)C(=O)C(C)C(OC2OC(C)CC(N(C)C)C2O)C(C)(OC)CC(C)C(=O)C(C)C2N(CC3CN(Cc4c(C)ccc5nc[nH]c45)C3)C(=O)OC12C.O=CO (stereo not drawn) [Example 4.44, 3-descladinosyl-11,12-dideoxy-6-O-methyl-3-oxo-12,11-(oxycarbonyl-(1-((6-methyl-1H-benzo[d]imidazol-7-yl)-methyl)-(azetidin-3-yl)-methyl)-imino)-erythromycin A]						0.25 µg/mL	<0.06 µg/mL	0.5 µg/mL	8 µg/mL	<0.06 µg/mL
CCC1OC(=O)C(C)C(=O)C(C)C(OC2OC(C)CC(N(C)C)C2O)C(C)(OC)CC(C)C(=O)C(C)C2N(C3CN(S(=O)(=O)c4ccc(-n5nccn5)cc4)C3)C(=O)OC12C (stereo not drawn) [Example 3.55, 3-descladinosyl-11,12-dideoxy-4-O-methyl-3-oxo-12,11-(oxycarbonyl-(1-(4-(2H-1,2,3-triazol-2-yl)benzenesulfonyl)-azetidin-3-yl)-imino)erythromycin A]						1 µg/mL (≈ 1.14 µM)	<0.06 µg/mL	<0.06 µg/mL	<0.06 µg/mL	<0.06 µg/mL
